# Experimental data: article PMC9286277, “Enzymatic measurement of short-chain fatty acids and application in periodontal disease diagnosis” (PLoS ONE, 2022)
# Target: T1, AK (acetate kinase) (Escherichia coli, UniProt P0A6A3)
# T1 construct: gene ackA
# Test: not given
# Conditions: ATP, Mg2+; 0.1 M Tris-HCl pH 7.5; 37°C
# From the text: coupled ADP-hexokinase/G6PDH NADPH assay on AK (acetate kinase)
# T1 sequence (P0A6A3 whole entry): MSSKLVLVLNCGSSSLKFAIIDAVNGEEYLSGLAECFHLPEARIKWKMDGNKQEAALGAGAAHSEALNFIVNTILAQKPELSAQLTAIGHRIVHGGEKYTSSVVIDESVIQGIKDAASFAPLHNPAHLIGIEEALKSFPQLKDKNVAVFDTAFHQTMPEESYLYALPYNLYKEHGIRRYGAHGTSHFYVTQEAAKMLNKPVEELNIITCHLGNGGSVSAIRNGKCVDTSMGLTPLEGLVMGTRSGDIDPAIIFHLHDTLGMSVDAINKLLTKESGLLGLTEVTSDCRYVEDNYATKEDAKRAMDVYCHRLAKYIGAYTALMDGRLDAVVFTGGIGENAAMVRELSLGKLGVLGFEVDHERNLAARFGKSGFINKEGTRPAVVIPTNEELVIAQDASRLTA
row,Structure (SMILES),AK / Km [mmol]
1,"CC(=O)O [C2, acetic acid]",9.1

# Test system: T2, PK (propionate kinase)
# T2 construct: gene tdcD
# Test: not given
# Conditions: ATP, Mg2+; 0.1 M Tris-HCl pH 7.5; 37°C
row,Structure (SMILES),PK / Km [mmol]
1,"CCC(=O)O [C3, propionic acid]",1.8
2,"CC(=O)O [C2, acetic acid]",13.2
3,"CCCC(=O)O [C4, butyric acid]",280

# Target: T3, His-tagged BK (butyrate kinase; ToBKIII) (Thermosediminibacter oceani, UniProt D9S2G7)
# T3 construct: gene buk; entire gene (about 1,100 bp, about 360 residues) NdeI/HindIII in pET21a(+), E. coli BL21(DE3), Ni column; C-terminal vector His tag; sense primer encodes N-terminus MTFYGILA; antisense primer encodes C-terminus EKPKEYL before HindIII site (KL)
# T3 sequence (D9S2G7 1-357): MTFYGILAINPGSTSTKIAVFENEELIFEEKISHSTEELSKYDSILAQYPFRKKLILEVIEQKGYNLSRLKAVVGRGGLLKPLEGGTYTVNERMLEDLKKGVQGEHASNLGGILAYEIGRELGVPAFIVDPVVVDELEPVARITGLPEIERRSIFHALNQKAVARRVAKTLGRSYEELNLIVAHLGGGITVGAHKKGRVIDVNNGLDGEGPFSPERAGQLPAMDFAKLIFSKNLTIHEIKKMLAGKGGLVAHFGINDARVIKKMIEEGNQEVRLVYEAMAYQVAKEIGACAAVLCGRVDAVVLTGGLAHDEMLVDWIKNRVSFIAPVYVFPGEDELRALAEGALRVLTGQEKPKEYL
# Test: coupled ADP-hexokinase/G6PDH NADPH assay
# Format: biochemical
# Conditions: ATP, Mg2+; 0.1 M Tris-HCl pH 7.5; 37°C
# From the text: coupled ADP-hexokinase/G6PDH NADPH assay on His-tagged BK (butyrate kinase; ToBKIII)
row,Structure (SMILES),BK / Km [mmol]
1,"CCC(=O)O [C3, propionic acid]",5.1
2,"CCCCC(=O)O [C5, valeric acid]",3.3
3,"CC(C)CC(=O)O [IC5, isovaleric acid]",2.1
4,"CCCC(=O)O [C4, butyric acid]",2.2
5,"CC(C)C(=O)O [IC4, isobutyric acid]",3.2
6,"CCCCCC(=O)O [C6, caproic acid]",8.7
